Laboratory results from patent publication US9556155B2, “Methods of treating fatty liver disease” (Genzyme Corporation, priority 2006, dated 2017).

How the values were obtained:
Assay type in all cases: in vivo
[1] = tested on: hepatic genes involved in lipogenesis, gluconeogenesis, inflammation, and fibrosis; test: Quantitative RT-PCR of hepatic genes in ob/ob mice; conditions: 120 mg/kg/day oral gavage, 6 weeks, vs placebo
Text: FIGS. 7A-G are a series of graphs comparing the expression of hepatic genes involved in lipogenesis, gluconeogenesis, inflammation, and fibrosis in ob/ob mice treated with water, ob/ob mice treated with Formula X, and lean mice treated with water after 6 weeks of treatment. In FIG. 7A, lower levels of sterol regulatory element binding protein 1c (SREBP-1c) RNA are observed in the drug-treated versus placebo-treated control animals. In FIG. 7B, lower levels of acid citrate lyase 1 (ACL1) are observed in the drug-treated versus placebo-treated control animals. In FIG. 7C, lower levels of acetyl coenzyme A carboxylase 1 (ACC1) are observed in the drug-treated versus placebo-treated control animals. In FIG. 7D, lower levels of fatty acid synthase (FAS) are observed in the drug-treated versus placebo-treated control animals. In FIG. 7E, lower levels of tumor necrosis factor 1 alpha (TNF-α) are observed in the drug-treated versus placebo-treated control animals. In FIG. 7F, lower levels of glucose 6-phosphatase (G6P) are observed in the drug-treated versus placebo-treated control animals. In FIG. 7G, lower levels of procollagen type 1 (collagen) are observed in the drug-treated versus placebo-treated control animals. Thus, treatment with Formula X reduced the expression of genes involved in lipogenesis (SREBP-1c, ACL1, ACC1, FAS), gluconeogenesis (G6P), inflammation (TNF-α), and fibrosis.
The ob/ob mice, beginning at 7 weeks of age, were treated with Formula X by daily oral gavage (dosed 2× per day at 60 mg/kg/dose, or 120 mg/kg/day) for 6 weeks. The mice were sacrificed and total RNA was purified from the livers for quantitative RT-PCR (FIG. 7) of sterol regulatory element binding protein 1c (SREBP-1c), acid citrate lyase 1 (ACL1), acetyl coenzyme A carboxylase 1 (ACC1), fatty acid synthase (FAS), tumor necrosis factor 1 alpha (TNF-α), glucose 6-phosphatase (G6P), and procollagen type 1 (collagen).

ob/ob mice = test: Liver weight and body weight in ob/ob mice
Method: FIG. 6 is a graph comparing the liver weight to body weight ratios of ob/ob mice treated with water, ob/ob mice treated with Formula X, and lean mice treated with water after 6 weeks of treatment.
Male ob/ob mice were obtained from the Jackson Laboratories (Bar Harbor, Me.). These mice, being deficient in leptin, are hyperphagic and rapidly become obese. Severe hepatic steatosis is a characteristic of this model. Beginning at 7 weeks of age the mice were treated with Formula X by daily oral gavage (dosed 2× per day at 60 mg/kg/dose or 120 mg/kg/day). […] After 6 weeks of treatment, the animals were sacrificed and the livers dissected and weighed. In the placebo treated ob/ob mice, the liver weight to body weight ratio was higher than in lean animals (FIG. 6). […] N=6-8 mice per group.

DIO mice [2] = test: Markers of liver toxicity in blood of DIO mice; conditions: 125 mg/kg/day oral gavage, 9 weeks, vs placebo
Text: FIGS. 5A-5D are a series of graphs comparing the levels of liver enzymes in DIO mice treated with water and DIO mice treated with Formula XI for 9 weeks. In FIG. 1A, lower levels of alanine aminotransferase (ALT) are observed in the drug-treated versus placebo-treated control animals. In FIG. 1B, lower levels of aspartate aminotransferase (AST) are observed in the drug-treated versus placebo-treated control animals. In FIG. 1C, lower levels of alkaline phosphatase are observed in the drug-treated versus placebo-treated control animals. In FIG. 1D, lower levels of γ-glutamyltransferase (GGT) are observed in the drug-treated versus placebo-treated control animals.
DIO mice were generated as described in Example 1. Mice were maintained on the high-fat diet for an additional 23 weeks (total time on diet 31 weeks). The mice were then treated with Formula XI by daily oral gavage (125 mg/kg/day). Blood was collected after 9 weeks of treatment and markers of liver toxicity were analyzed (IDEXX Laboratories, West Sacramento, Calif.). Lower levels of alanine aminotransferase (ALT), aspartate aminotransferase (AST), alkaline phosphatase, and gamma-glutamyltransferase (GGT) were found in the drug-treated versus placebo-treated control animals (FIGS. 5A-5D).

[3] = tested on: diet-induced obese (DIO) C57BL/6 mice; test: Hepatic steatosis in DIO mice, hematoxylin and eosin stained liver sections; conditions: 125 mg/kg daily oral gavage, 10 weeks, vs water control
Method: FIGS. 2A-2C are a series of photographs comparing hematoxylin and eosin stained liver sections of (A) diet-induced obese (DIO) C57BL/6 mice treated with water (control), (B) DIO mice treated with D-threo-1-(3′,4′-ethylenedioxy)phenyl-2-octanoylamino-3-pyrrolidino-1-propanol (Formula XI), and (C) lean mice treated with water (control). Mice were treated by daily oral gavage for 10 weeks and then sacrificed. In FIG. 1A, large vacuoles are visible throughout the parenchyma of the livers from the water-treated control mice. […] In FIG. 1C, the livers of normal, lean mice are devoid of any lipid-filled vacuoles.
Diet-induced obese (DIO) mice were first generated by placing C57BL/6 mice on a high-fat (45% of kcal) diet (D12451, Research Diets, Inc., New Brunswick, N.J.) for 8 weeks. Obese mice that had elevated glucose and insulin levels were selected and then treated with Formula XI by daily oral gavage (125 mg/kg) or with water as a control. After 10 weeks of treatment, the livers were harvested, sectioned, and stained with hematoxylin and eosin. Large vacuoles were visible throughout the parenchyma of the livers from the water control mice (FIGS. 2A-2C). These vacuoles contain neutral lipid by Oil Red O staining of the liver sections.

DIO mice [4] = test: Liver triglyceride levels in DIO mice (hepatic lipid extracts); conditions: 75 or 125 mg/kg daily oral gavage, 16 weeks, vs water control
Method: FIG. 3 is a graph comparing the mean levels of liver triglycerides in DIO mice treated with water, DIO mice treated with 75 mg/kg Formula XI, DIO mice treated with 125 mg/kg Formula XI, and lean mice treated with water. Mice were treated by daily oral gavage for 16 weeks and then euthanized. The livers were harvested and homogenized. Triglyceride levels were measured in hepatic lipid extracts.
DIO mice were generated as described in Example 1 and then treated with Formula XI by daily oral gavage at a dose of 75 or 125 mg/kg. Mice gavaged with water served as the control. After 16 weeks of treatment the livers were harvested and homogenized. The lipids were extracted with methanol:chloroform (4.3:3 v/v) and CaCI2. The extracted lipids were dried and dissolved in dimethylsulfoxide (DMSO). Triglycerides were measured using the Serum Triglyceride Determination kit (Sigma-Aldrich, St. Louis, Mo.) according to the protocol supplied by the manufacturer.

DIO mice [5] = test: Liver weight and body weight in DIO mice
Method: FIG. 4 is a graph comparing the liver weight to body weight ratios of DIO mice treated with water, DIO mice treated with Formula XI, and lean mice treated with water after 9 and 17 weeks of treatment.
DIO mice were generated as described in Example 1. Mice were maintained on the high-fat diet for an additional 23 weeks (total time on diet 31 weeks). The mice were then treated with Formula XI by daily oral gavage (125 mg/kg/day). […] After 9 and 17 weeks of treatment, groups of animals were sacrificed and the livers dissected and weighed. In the DIO mice, the liver weight to body weight ratio was higher than in lean animals.

Structure (SMILES) | acetyl coenzyme A carboxylase 1 (ACC1) expression in liver [1] | acid citrate lyase 1 (ACL1) expression in liver [1] | fatty acid synthase (FAS) expression in liver [1] | glucose 6-phosphatase (G6P) expression in liver [1] | procollagen type 1 (collagen) expression in liver [1] | sterol regulatory element binding protein 1c (SREBP-1c) RNA level in liver [1] | tumor necrosis factor 1 alpha (TNF-α) expression in liver [1] | liver weights (ob/ob mice; 120 mg/kg/day oral gavage, 6 weeks) | liver weight to body weight ratio (ob/ob mice; 6 weeks of treatment, vs water) | alanine aminotransferase (ALT) level (DIO mice [2]) | alkaline phosphatase level (DIO mice [2]) | aspartate aminotransferase (AST) level (DIO mice [2]) | gamma-glutamyltransferase (GGT) level (DIO mice [2]) | size of liver vacuoles [3] | vacuoles visible in the livers (neutral lipid) [3] | total triglyceride levels in the liver (DIO mice [4]) | liver weights (DIO mice [5]; 125 mg/kg/day oral gavage, 9 and 17 weeks) | liver/body weight ratio (DIO mice [5]; 125 mg/kg/day oral gavage, after 17 weeks, vs lean group) | liver weight to body weight ratio (DIO mice [5]; 9 and 17 weeks of treatment, vs water)
CCCCCCCCC(=O)NC(CN1CCCC1)C(O)c1ccc2c(c1)OCCO2 (stereo not shown) [Formula X, 1-(1,4-benzodioxan-6-yl)-2-nonanoylamino-3-pyrrolidino-1-propanol] | lower levels | lower levels | lower levels | lower levels | lower levels | lower levels | lower levels | significantly reduced | reduction | – | – | – | – | – | – | – | – | – | –
CCCCCCCC(=O)NC(CN1CCCC1)C(O)c1ccc2c(c1)OCCO2 (stereo not shown) [Formula XI, 1-(1,4-benzodioxan-6-yl)-2-octanoylamino-3-pyrrolidino-1-propanol] | – | – | – | – | – | – | – | – | – | Lower levels | Lower levels | Lower levels | Lower levels | appreciably smaller | significantly fewer vacuoles | dose-dependent reduction | significantly reduced | comparable to that of the lean group | reduction
